Legend:
Col1a1 (collagen 1) = experiment: Heart mRNA expression of fibrosis marker Col1a1 (semi-quantitative PCR); type: in vivo, mouse; conditions: mdx mice, 50 mg/kg*day, two months
Protocol: (§1) Twelve-week-old C57BL10 gene pool (wild mice referred to as “C57” in the figures) and C57BL10 mdx (mouse model of Duchenne muscular dystrophy, referred to as “mdx” in the figures) male mice, produced at Charles Rivers, were used. Two groups of mdx were chronically exposed per os either to BIO101 (number of mice n=9) or to BIO103 (number of mice n=9) at a dose of 50 mg/kg*day. A group of C57 mice (number of mice n=5) and a group of mdx mice (number of mice n=15) received the vehicle, i.e. no treatment. The animals of all of the groups were tested for their functional capacity (exertion tolerance test) after two months of treatment. […]
(§2) An assessment of markers of fibrosis and cardiac hypertrophy is carried out at the end of the protocol, i.e. after two months of treatment. […] The extract RNA is quantified by spectrophotometry then the quality thereof is verified and validated with the Experion RNA StdSens Analysis Kit (Bio-Rad). […] Finally, semi-quantitative PCR analysis was carried out using SYBR® Green (Roche), a DNA intercalating agent and a LightCycler® 480 Real Time PCR (Roche) apparatus on 384-well plates. The molecular markers measured are as follows: • CTGF and collagen I: connective tissue growth factor (CTGF) is associated with healing and with many pathological fibrotic processes including DMD (Brigstock 2010; Song Y. 2017). […]

[1] = system: tibialis anterior muscle of C57BL10 mdx mice; experiment: Histological study of tibialis anterior muscle stained with Sirius Red (fibrotic area); type: in vivo, mouse; conditions: 50 mg/kg*day, two months, p=0.0709
Protocol: Twelve-week-old C57BL10 gene pool (wild mice referred to as “C57” in the figures) and C57BL10 mdx (mouse model of Duchenne muscular dystrophy, referred to as “mdx” in the figures) male mice, produced at Charles Rivers, were used. Two groups of mdx were chronically exposed per os either to BIO101 (number of mice n=9) or to BIO103 (number of mice n=9) at a dose of 50 mg/kg*day. A group of C57 mice (number of mice n=5) and a group of mdx mice (number of mice n=15) received the vehicle, i.e. no treatment. The animals of all of the groups were tested for their functional capacity (exertion tolerance test) after two months of treatment. The exertion tolerance test consists of measuring the maximum distance travelled (in-toto activity; FIGS. 1A and 1B). Furthermore, measurements of the maximum absolute isometric strength of the tibialis anterior muscle (in-situ activity; FIGS. 2A and 2B) were made after two months of treatment.
An assessment of muscle fibrosis by histological study is carried out on the tibialis anterior muscle (abbreviated as TA). Histological sections (7 μm) are produced and stained either with haematoxylin eosin (HE) or with Sirius Red (SR).
An anatomopathological analysis of the sections of tibialis anterior muscle stained with SR makes it possible to quantify the fibrotic area. […]

[2] = system: Human DMD skeletal muscle cells (KM571DMD10FL Cl1); experiment: Differentiation of human DMD myoblasts into myotubes; type: cell-based; conditions: 10 μM, vs untreated control cells
Protocol: Various parameters have been measured to assess myotube differentiation. Human DMD skeletal muscle cells (KM571DMD10FL Cl1) were differentiated for 3 days then incubated with or without BIO101 at 10 μM. The fusion index and the number of nuclei per myotube were validated as relevant and sensitive indicators of myotube differentiation.
The fusion index illustrated in FIG. 7A represents the percentage of differentiated cell nuclei with respect to the cell total.
The number of nuclei per myotube is illustrated in FIG. 7B, 300 myotubes were counted.
The myotube diameter is illustrated in FIG. 7C, 150 myotubes were measured per condition.
The results in FIGS. 7A,7B and 7C show the mean data measured during three independent experiments, plus or minus the standard error (SEM).

[3] = system: BMP4 (bone morphogenetic protein 4); experiment: Heart mRNA expression of BMP4 (semi-quantitative PCR); type: in vivo, mouse; conditions: mdx mice, 50 mg/kg*day, two months; p=0.0529
Protocol: as §1, §2

AKT = AKT phosphorylation in human DMD myocytes (Western Blot); type: cell-based; conditions: 10 μM, 10 minutes to 24 hours, vs untreated control
Protocol: Human DMD skeletal muscle cells (KM571DMD1OFL Cl1) were differentiated for 5 days then optionally incubated with BIO101 at 10 μM for periods of between 10 minutes and 24 hours.
A densitometric analysis of results of at least 6 independent Western Blot experiments described the effects of BIO101 on the phosphorylation of AKT (FIG. 8A) and ERK1/2 (FIG. 8B) is shown, *p<0.05 versus the untreated control.

[4] = system: Human DMD skeletal muscle cells (KM571DMD1OFL Cl1); experiment: Cellular respiration (oxygen consumption rate, Seahorse XF Analyzer); type: cell-based; conditions: two days of treatment
Protocol: Human DMD skeletal muscle cells (KM571DMD1OFL Cl1) were differentiated for 4 days, then incubated in the presence or absence of BIO101 (1 or 5 μM) for 2 days. The oxygen consumption rate, also known as OCR, which reflects the mitochondrial respiration of the cells was measured using a Seahorse XF Analyzer (registered trademark, Agilent).
The basal respiration is measured directly whereas the maximum respiration is measured after adding oligomycin followed by FCCP (FIG. 9A and FIG. 9B). The results are referenced to the OCR of the untreated cells and are shown in the form of means plus or minus the standard error (SEM).

In the case of `CCSCC(=O)[C@H]1CC[C@@]2(O)C3=CC(=O)[C@@H]4C[C@@H](O)[C@@H](O)C[C@]4(C)C3CC[C@]12C` (stereo partly drawn) [BIO103, (2S,3R,5R,10R,13R,14S,17S)-17-(2-ethylsulfanylacetyl)-2,3,14-trihydroxy-10,13-dimethyl-2,3,4,5,9,11,12,15,16,17-decahydro-1H-cyclopenta[a]phenanthren-6-one], the “genic expression of Col1a1 in heart compared to control mdx animals” value (Col1a1 (collagen 1)) is reported as “tends to prevent” and the “onset of fibrosis (percentage area corresponding to fibrosis) compared to the control mdx group” value [1] is reported as “clearly tends to prevent”.

In the case of `CC(C)(O)CC[C@@H](O)[C@](C)(O)[C@H]1CC[C@@]2(O)C3=CC(=O)[C@@H]4C[C@@H](O)[C@@H](O)C[C@]4(C)[C@H]3CC[C@]12C` [BIO101, 20-hydroxyecdysone], the “increase in the myotube diameter” value ([2]; p<0.001) is reported as 21%, the “increase of the fusion index” value ([2]; p<0.001) is reported as “+7%” and the “increase in the number of nuclei per myotube” value ([2]; p<0.01) is reported as 34%. The “genic expression of BMP4 in heart compared to control mdx animals” value [3] was “reduces”, the “p-AKT (phosphorylation of AKT)” value (AKT) was “significant increase” and the “basal respiration increase (OCR) vs untreated cells” value ([4]; 1 μM, p<0.01) was 20%. For the same compound, the “maximum respiration increase (OCR after oligomycin and FCCP) vs untreated cells” value ([4]; 1 μM, p<0.05) was 51%, the “maximum respiration increase (OCR after oligomycin and FCCP) vs untreated cells” value ([4]; 5 μM, p =0.13) was 22% and the “basal respiration increase (OCR) vs untreated cells” value ([4]; 5 μM, p<0.001) was 21%.
